In a melting point compilation (Tetko et al.):

`CCOc1ccc(OCc2ccc(C(=O)NN)cc2)cc1` gave a melting point of 127 to 129 °C. For `COc1ccc(S(=O)(=O)N2CCNCC2)cc1OC`, the melting point was 145 to 147 °C. For `COC(=O)c1cc([N+](=O)[O-])cc([N+](=O)[O-])c1F`, the melting point was 67 to 69 °C. Molecule `O=C(CCl)NC1CCS(=O)(=O)C1` (stereo not drawn) has a melting point of 89 to 98 °C. Molecule `CC(C)C(C(=O)O)N1CCCC1=O` (stereo not drawn) has a melting point of 130 to 132 °C. `O=C(Cc1cccc(F)c1)c1ccc(Cl)c(Cl)c1` gave a melting point of 121 to 123 °C. Molecule `O=C1NC(=O)C2CC12` (stereo not drawn) has a melting point of 94 to 96 °C. For `CC(NC(=O)c1ccccc1Cl)C(=O)O` (stereo not drawn), the melting point was 137 to 139 °C. With `Cc1nnc2cc(Cl)ncn12` the melting point was 122 to 124 °C. `Cc1cccc([N+](=O)[O-])c1F` showed a melting point of 19 to 21 °C. Molecule `O=C(O)Cn1cnc2ccccc2c1=O` has a melting point of 241 to 243 °C. In the case of `O=C(NCCCCl)OCc1ccccc1`, the melting point is reported as 30 to 32 °C. `Cc1[nH]oc(=N)c1Br` gave a melting point of 67 to 69 °C. With `COc1ccc(Br)cc1C1NC(=O)NC1=O` (stereo not drawn) the melting point was 209 to 211 °C. For `COc1ncc(Cl)c(Cl)n1`, the melting point was 43 to 45 °C. `CC1CN(c2ccc(NC(=O)OCC(F)(F)F)cc2F)CC(C)O1` (stereo not drawn) gave a melting point of 130 to 132 °C. `N#Cc1cccnc1NCc1ccccc1Cl` showed a melting point of 111 to 113 °C. Molecule `O=C(O)CSc1nncn1-c1ccccc1` has a melting point of 207 to 209 °C. `Cc1cc(N2CCNCC2)nc(C(C)C)n1` showed a melting point of 42 to 46 °C. `O=c1[nH]c2ccc(S(=O)(=O)Cl)cc2o1` gave a melting point of 151 to 155 °C. Molecule `O=C(O)c1cc2c(OC(F)F)cccc2[nH]1` has a melting point of 215 to 217 °C. In the case of `N#CCCn1cc(C=O)c(-c2ccccc2)n1`, the melting point is reported as 74 to 76 °C. `O=C(O)c1cc(F)ccc1-n1ccnc1` showed a melting point of 229 to 231 °C. For `O=C1CCCC1c1ccccc1` (stereo not drawn), the melting point was 35 to 37 °C. Work on `CCC(C(=O)O)n1nnc(-c2ccc(Cl)cc2)n1` (stereo not drawn) yielded a melting point of 184 to 186 °C. With `NCCc1nc2ccccc2s1` the melting point was 47 to 49 °C. For `Cc1cnc(-c2cccc(N)c2)o1`, the melting point was 107 to 109 °C. With `COc1ccccc1-c1cc(N)on1` the melting point was 93 to 95 °C. `Cc1cc(C)c(C)c(S(=O)(=O)N2CCC(C(=O)O)CC2)c1C` showed a melting point of 107 to 109 °C. Work on `CN(C)Cc1nnc(S)o1` yielded a melting point of 202 to 204 °C. Molecule `CN(CC(=O)O)c1ccccc1[N+](=O)[O-]` has a melting point of 69 to 71 °C. For `COc1ccccc1-c1nnc(SCC(=O)O)n1N`, the melting point was 181 to 183 °C. Molecule `COc1ccc(S(N)(=O)=O)cc1N` has a melting point of 145 to 147 °C. Work on `CC(C)NC(=O)NN` yielded a melting point of 77 to 79 °C. `CN(C)C=C(Br)C=O` gave a melting point of 48 to 50 °C. With `CC(C)(c1ccccc1)c1nnc(N)s1` the melting point was 149 to 151 °C. `ClCc1nnc(-c2cccs2)o1` showed a melting point of 77 to 79 °C. For `CC(Cl)C(=O)N1N=C(c2ccc(Cl)cc2)CC1c1ccco1` (stereo not drawn), the melting point was 141 to 143 °C. With `O=C(O)c1sc2cccc(F)c2c1COc1ccccc1` the melting point was 206 to 208 °C. `Cc1cc(Cl)c(N)cc1Cl` gave a melting point of 86 to 88 °C. `Clc1cc(-n2ccnc2)ncn1` showed a melting point of 127 to 129 °C. In the case of `CCCCC1(c2ccc(F)cc2)NC(=O)NC1=O` (stereo not drawn), the melting point is reported as 113 to 115 °C. In the case of `OCc1nc(-c2ccccc2)cs1`, the melting point is reported as 87 to 89 °C. `O=C(O)c1cc(O)cc(OCC(F)(F)F)c1` gave a melting point of 165 to 167 °C. With `Nc1ncc2c(n1)CCN(Cc1ccccc1)C2` the melting point was 179 to 181 °C. With `c1ccc(-c2nc[nH]n2)nc1` the melting point was 159 to 161 °C. With `Cc1noc(C)c1S(=O)(=O)N1CCC(C(=O)O)CC1` the melting point was 210 to 215 °C. `COc1cc(C(=O)NN)ccc1OCCC(C)C` gave a melting point of 88 to 90 °C. For `CC(=O)c1nnn(-c2ccc(F)cc2)c1C`, the melting point was 77 to 79 °C. `Fc1ccc(Oc2ccc(Cl)nn2)c(F)c1` showed a melting point of 113 to 115 °C. Molecule `COc1ccc([N+](=O)[O-])cc1NC(=O)C(C)Cl` (stereo not drawn) has a melting point of 131 to 133 °C. `O=C(O)C1=C(c2ccccc2)N2CCS(=O)(=O)N=C2S1` showed a melting point of 244 to 246 °C. Work on `O=C1Nc2c(F)cc(Cl)cc2C1=O` yielded a melting point of 219 to 221 °C. Molecule `Cc1cc(C)n2cnc(C(N)=O)c2n1` has a melting point of 303 to 305 °C. Work on `CN(C)C=CC(=O)C(F)(F)F` yielded a melting point of 52 to 54 °C. `Cc1nc(N)[nH]c(=O)c1CC(=O)O` gave a melting point of 313 to 315 °C. Molecule `CC1(c2ccc(I)cc2)NC(=O)NC1=O` (stereo not drawn) has a melting point of 265 to 267 °C. Molecule `C#CCN1CCNC1=O` has a melting point of 119 to 121 °C. `O=C(O)c1cc([N+](=O)[O-])ccc1I` gave a melting point of 194 to 196 °C. `O=C(O)c1nc(=O)[nH][nH]1` gave a melting point of 202 to 204 °C. For `CCOC(=O)c1cc(N)[nH]n1`, the melting point was 118 to 120 °C. `O=C(c1cccnc1)c1csc2ccccc12` showed a melting point of 109 to 111 °C. In the case of `CC1=NN(C)C(=O)C1`, the melting point is reported as 109 to 111 °C. `COc1ccc(CN)cc1NC(C)=O` gave a melting point of 115 to 117 °C. In the case of `O=C(O)C(Cc1ccsc1)C(=O)O`, the melting point is reported as 108 to 110 °C. For `O=C(CCCl)N1CCN(c2ncccn2)CC1`, the melting point was 139 to 141 °C. `COC(=O)c1ccc(C(=O)O)o1` gave a melting point of 194 to 196 °C. Molecule `O=C(O)C(=O)c1cnn(-c2ccccc2)c1` has a melting point of 168 to 170 °C. Work on `Nc1c(F)ccc(Br)c1C(=O)O` yielded a melting point of 128 to 130 °C. With `CCOC(C)C(N)=S` (stereo not drawn) the melting point was 54 to 56 °C. `CN(C(=O)CSc1ccccc1C(=O)O)C1CCCCC1` gave a melting point of 102 to 104 °C. With `O=S(=O)(Cl)c1c(Cl)cc(F)cc1Br` the melting point was 55 to 57 °C. In the case of `NS(=O)(=O)N1CCc2ccccc2C1`, the melting point is reported as 159 to 161 °C.
